{"source": "patent US12352767B2", "about": "“Method of treating cognitive decline associated with neurological diseases based on a decrease in FLT4 expression or activity” (University of Virginia Patent Foundation, priority 2018, dated 2025)", "key": {"meningeal immune cells": {"system": "meningeal immune cells", "assay": "Flow cytometry of meningeal immune cell populations", "type": "in vivo", "details": "5xFAD mice", "method": "Individual meninges were immediately dissected from the mouse's skull cap and digested 15 min at 37° C. with 1.4 U/ml of Collagenase VIII (Sigma Aldrich) and 35 U/ml of DNAse I (Sigma Aldrich) in complete media consisting of DMEM (Gibco) with 2% FBS (Atlas Biologicals), 1% L-Glutamine (Gibco), 1% penicillin/streptomycin (Gibco), 1% Sodium pyruvate (Gibco), 1% non-essential amino-acid (Gibco) and 1.5% Hepes (Gibco). […] Cell viability was determined by using the Zombie Aqua™ Fixable Viability Kit following the manufacturer's instructions (BioLegend). […] Fluorescence data was collected with a Gallios™ Flow Cytometer (Beckman Coulter, Inc.) then analyzed using FlowJo software (Tree Star, Inc.). […] An aliquot of unstained cells of each sample was counted using Cellometer Auto2000 (Nexcelor) to provide accurate counts for each population. […]"}, "aquaporin 4 (AQP4)": {"system": "aquaporin 4 (AQP4)", "assay": "AQP4 / CD31 immunostaining of brain sections", "type": "in vivo, mice", "experimental": "Mouse fresh frozen brain sections were fixed with 4% PFA for 30 min, rinsed in dH2O and submitted to a heat-induced antigen retrieval step with 10 mM citrate buffer for 20 min. […] The steps described next were generally applied for mouse fresh frozen or fixed free-floating brain sections, lymph node sections on slide, meningeal whole-mounts and human fixed tissue. For immunofluorescence staining, tissue was rinsed in PBS and washed with PBS 0.5% Triton-X-100 for 10 min, followed by incubation in PBS 0.5% Triton-X-100 containing 0.5% of normal serum (either goat or chicken) and 0.5% bovine serum albumin (BSA) for 1 hour at RT. This blocking step was followed by incubation with appropriate dilutions of primary antibodies: anti-LYVE-1 eFluor 660 or anti-LYVE-1 Alexa Fluor® 488 (eBioscience, clone ALY7, 1:200), anti-CD31 (Millipore Sigma, MAB1398Z, clone 2H8, 1:200), anti-IBA1 (Abcam, ab5076, 1:300), anti-GFAP (Millipore Sigma, ab5541, 1:300), anti-AQP4 (Millipore Sigma, A5971, 1:200), anti-Ki67 (Abcam, ab15580, 1:100), anti-hAβ1-16 (BioLegend, clone 6E10, 1:200), anti-Aβ1-37/42 (Cell Signaling, clone D54D2, 1:300) and anti-GFP (Abcam, ab6556, 1:300) in PBS 0.5% Triton-X-100 containing 0.5% of normal serum and 0.5% BSA overnight at 4° C. Meningeal whole-mounts or tissue sections were then washed 3 times for 5 min at RT in PBS 0.5% Triton-X-100 followed by incubation with the appropriate chicken, goat or donkey Alexa Fluor® 488, 546, 594, or 647 anti-rat, -goat, -rabbit, -mouse or -Armenian hamster IgG antibodies (Thermo Fisher Scientific, 1:500) for 1 or 2 hours at RT in PBS 0.5% Triton-X-100. After an incubation for 10 min with 1:2000 DAPI in PBS, the tissue was washed 3 times for 5 min with PBS at RT and mounted with Aqua-Mount (Lerner) and glass coverslips. Preparations were stored at 4° C. for no more than 1 week until images were acquired either using a widefield microscope (Leica) or a confocal microscope (FV1200 Laser Scanning Confocal Microscope, Olympus). Quantitative analysis using the acquired images was performed on FIJI software. For the assessment of brain fluorescent tracer influx or efflux or AQP4 coverage, 10 representative brain sections were imaged using the widefield microscope and the mean area fraction was calculated using Microsoft Excel. […] Area of coverage by CD31^+ blood vessels and AQP4^+ astrocyte endfeet in the brain cortex was achieved by calculating the mean value of 10 representative fields (5 images in each cerebral hemisphere) per sample acquired using the confocal microscope."}, "[1]": {"details": "Visudyne-treated vs vehicle-treated mice"}}, "note": "“Also recorded” adds a separate entry of the source.", "data": [{"substance": "verteporfin [Visudyne]", "values": [{"measurement": "number of macrophages in the meninges", "setting": "meningeal immune cells; 1.5 months Visudyne/photoconversion vs both control groups", "result": "significant increase"}, {"measurement": "neutrophils in the meninges", "setting": "meningeal immune cells; Visudyne group (no photoconversion) compared to Visudyne/photoconversion group", "result": "significant increase"}, {"measurement": "area of AQP4+ astrocytic endfeet in brain cortex", "setting": "aquaporin 4 (AQP4); Visudyne vs vehicle", "result": "No changes were observed"}, {"measurement": "area of CD31+ blood vessels in brain cortex", "setting": "aquaporin 4 (AQP4); Visudyne vs vehicle", "result": "No changes were observed"}, {"measurement": "ratio between area of AQP4+ and of CD31+", "setting": "aquaporin 4 (AQP4); Visudyne vs vehicle", "result": "No changes were observed"}, {"measurement": "overall brain coverage by AQP4 (area fraction)", "setting": "aquaporin 4 (AQP4); [1]", "result": "could not detect changes; also recorded: no differences between groups"}, {"measurement": "perivascular localization of AQP4+ astrocytic endfeet", "setting": "aquaporin 4 (AQP4); [1]", "result": "could not detect changes"}]}]}
